In ChEMBL document CHEMBL1156695, “The novel primaquine derivatives of N-alkyl, cycloalkyl or aryl urea: synthesis, cytostatic and antiviral activity evaluations” (Eur J Med Chem, 2008) one finds Activity data, which are given here for ten compounds.

Calls of active or inactive are those of the source. The calls are words filed in the database; no cut-off is given here.

The assay deals with Vaccinia virus. Put plainly: Antiviral activity against vaccinia virus infected in HEL cells assessed as reduction of virus-induced cytopathogenicity. The note with it: Orthopoxvirus vaccinia. The format is functional, organism-based. For orientation: Cytopathic effects are the visible damage that an infection or toxin causes in cultured cells.
For the compound `COc1cc(NC(C)CCCNC(=O)NC(c2ccccc2)c2ccccc2)c2ncccc2c1` (stereo not given), the outcome was inactive. For the compound `COc1cc(NC(C)CCCNC(=O)N(C2CCCCC2)C2CCCCC2)c2ncccc2c1` (stereo not given), the outcome was inactive. Take `COc1cc(NC(C)CCCNC(=O)NCc2ccccc2)c2ncccc2c1` (stereo not given): the result was inactive. `COc1cc(NC(C)CCCNC(=O)NCC2CCCCC2)c2ncccc2c1` (stereo not given): the outcome was inactive.

Turning to `COc1cc(NC(C)CCCNC(=O)NC2CCCC2)c2ncccc2c1` (stereo not given), the result was inactive.

In the case of `CCN(CC)C(=O)NCCCC(C)Nc1cc(OC)cc2cccnc12` (stereo not given), the outcome was inactive. On to `COc1cc(NC(C)CCCNC(=O)NC2CCCCC2)c2ncccc2c1` (stereo not given), for which the result was inactive. For `COc1cc(NC(C)CCCNC(=O)NCCc2ccccc2)c2ncccc2c1` (stereo not given), the result was inactive. As for `COc1cc(NC(C)CCCNC(=O)n2nnc3ccccc32)c2ncccc2c1` (stereo not given) [PRIMAQUINE BENZOTRIAZOLIDE], the outcome was inactive.

Take `COc1cc(NC(C)CCCNC(=O)NCc2ccncc2)c2ncccc2c1` (stereo not given): the result was inactive.
